Legend:
[1] = Potency of Amphotericin after foam drying and storage; assay type: physicochemical
Procedure: Freeze-dried samples of Amphotericin B were rehydrated with 5 ml 40 wt % sucrose per vial. Then the solutions (5 ml) were transferred into 50 ml sterilized glass vials for future preservation by drying. Before drying, the vials were covered with gray butyl slotted rubber stoppers. The vials were dried inside a vacuum chamber. The vials were placed on the surface of a stainless steel shelf inside the chamber. Before the vacuum was applied the shelf temperature was decreased to 5 C. The hydrostatic pressure inside the chamber was decreased to 0.5 Torr. Under such conditions the suspension boiled for 30 min. The temperature of the shelf was then slowly (during 30 min) increased to 25 C. Visually, stable dry foams were formed inside the vials under these experimental conditions within 3 hours. After an additional 12 hours of drying at room temperature, the chamber was filled with the dry N2 gas and the rubber stoppers in a portion of the vials were pushed down. The vials were removed from the chamber and subsequently sealed with aluminum crimped seal. The samples were assayed right after drying and after 30 days of storage at 27.5 and 40 C. The results are shown in Table 1, together with the results obtained in the next experiment.
Another set of freeze-dried samples of Amphotericin B was rehydrated with 5 ml 40 wt % sucrose per vial. The solutions were then transferred into sterilized glass vials for future preservation by drying similar to that described above with additional drying at 45 C for additional 24 hours. After that, the chamber was filled again with the dry N2 gas, the rubber stoppers were pushed down and the vials were sealed. The samples were assayed right after drying and after 30 day of storage at 27.5 and 40 C.

[2] = Urokinase activity after foam drying and storage; assay type: biochemical
Procedure: Freeze-dried samples of Urokinase were rehydrated with 2 ml of 40 wt % sucrose. The solutions were then transferred to 20 ml sterilized glass vials for future preservation by drying. Before drying, the vials were covered with gray slotted rubber stoppers. The vials were dried inside a vacuum chamber. The vials were sitting on the surface of a stainless steel shelf inside the chamber. Before the vacuum was applied the shelf temperature was decreased to 5 C. Then the hydrostatic pressure inside the chamber was decreased to 0.5 Torr. Under such conditions, the suspension boiled for 30 min. […] Visually, under these experimental conditions, stable dry foams were formed inside the vials within 3 hours. After an additional 12 hours of drying at room temperature, the temperature was increased to 45 C for an additional 24 hours. After that the chamber was filled with dry N2 gas, the rubber stoppers were pushed down and the vials were sealed with aluminum crimp seals.
The samples were assayed right after drying and after 30 days of storage at 40 C. After drying the Urokinase, activity was 93% of the initial activity. This decrease was associated with the loss of Urokinase during transfer from initial vials to the vials at which the Urokinase was dried. After 30 days of storage at 40 C the activity was 90%. […]

[3] = isocitrate dehydrogenase activity (NADP reduction at 340 nm) after preservation by foam drying; assay type: biochemical
Procedure: An aqueous 50% glycerol isocitrate dehydrogenase solution from Sigma Chemical Co. containing 59.4 units of activity per ml was dialyzed for 5 hours in 0.1 M TRIS HCl buffer (pH 7.4). The activity of the isocitrate dehydrogenase in the 0.1 M TRIS HCl solution after dialysis was 26±1.8 units per ml. The activity decrease was associated with a decrease in the enzyme concentration because of dilution during the dialysis.
A mixture (100 l) containing 50 l of 50% by weight sucrose solution and 50 l of the isocitrate dehydrogenase suspension in 0.1 M TRIS HCl buffer (pH 7.4) was placed in 1.5 ml plastic tubes and preserved by drying at room temperature. First, the samples were dried for 4 hours under low vacuum (0.2 atm). Second, the samples were boiled during 4 hours under high vacuum (<0.01 atm). During this step, a mechanically stable dry foam was formed in the tubes. Third, the samples were stored during 8 days over DRIERITE under vacuum at room temperature.
After 8 days, the samples were rehydrated with 500 l water. Rehydration of the samples containing dry foams was an easy process that was completed within several seconds. The reconstituted sample was assayed for activity by assaying ability to reduce NADP, measured spectrophotometrically at 340 nm. The reaction mix included: 2 ml 0.1 M TRIS HCl buffer, pH 7.4; 10 l of 0.5% by weight NADP+; 10 l of 10 mM MnSO4; 10 l of 50 mM 1-isocitrate; and 10 l of an isocitrate dehydrogenase solution.

[4] = aqueous 50% glycerol solution from Sigma Chemical Co., before dialysis; cited from earlier work

C[C@@H]1[C@H](O)[C@@H](C)/C=C/C=C/C=C/C=C/C=C/C=C/C=C/[C@H](O[C@@H]2O[C@H](C)[C@@H](O)[C@H](N)[C@@H]2O)C[C@@H]2O[C@](O)(C[C@@H](O)C[C@@H](O)[C@H](O)CC[C@@H](O)C[C@@H](O)CC(=O)O[C@H]1C)C[C@H](O)[C@H]2C(=O)O [Amphotericin, Amphotericin B]
Potency of Amphotericin (%) ([1]; Control (printed in column After drying)): 126% | Potency of Amphotericin (%) After 30 days at 27.5 C. ([1]; Td = 25 C): 114% | Potency of Amphotericin (%) After 30 days at 40 C. ([1]; Td = 25 C): 95% | Potency of Amphotericin (%) After drying ([1]; Td = 25 C): 108% | Potency of Amphotericin (%) After 30 days at 27.5 C. ([1]; Td = 45 C): 102% | Potency of Amphotericin (%) After 30 days at 40 C. ([1]; Td = 45 C): 104% | Potency of Amphotericin (%) After drying ([1]; Td = 45 C): 103%

Urokinase
Urokinase activity, % of the initial activity ([2]; after 30 days of storage at 40 C): 90% | Urokinase activity, % of the initial activity ([2]; right after drying (40 wt % sucrose foam, up to 45 C)): 93%

isocitrate dehydrogenase
loss of activity during drying and subsequent storage ([3]; 8 days at room temperature): no loss of activity | activity after rehydration ([3]; dried with sucrose to foam, stored 8 days over DRIERITE under vacuum at room temperature, 100 l sample rehydrated with 500 l water): 2.6±0.2 units/ml | activity of isocitrate dehydrogenase after dialysis ([3]; in 0.1 M TRIS HCl (pH 7.4) after 5 hours dialysis): 26±1.8 units per ml | activity of isocitrate dehydrogenase solution [4]: 59.4 units of activity per ml
